Source: patent US6355799B1, “Substituted benzene compounds, process for their preparation, and herbicidal and defoliant compositions containing them” (ISK Americas Incorporated, priority 1997, dated 2002)

Assays:
Assay type in all cases: in vivo
[1] = tested on: redroot pigweed (Amaranthus retroflexus, AMARE); assay: Pre-emerge test, greenhouse herbicide activity screening; conditions: pre-emerge, 14 days after application, rating scale 0-100
Summary of the method: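 Compounds in acetone were track-sprayed at 187 l/ha, 15–1000 g ai/ha, onto sandy loam pots. Pre-emerge seeds were sown one day before spraying, with surface watering afterwards. Post-emerge plants were at the 2–3 leaf stage and sprayed with 0.25% v/v non-ionic surfactant. Injury was rated 0–100 at 14 days.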

[2] = tested on: upland rice (Oryza sp., var. Tebonnet, RICE); assay: Post-emerge test, crop safety; conditions: post-emerge, 14 days after application, rating scale 0-100
Summary of the method: (§1)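 Plants grown in 10 cm pots of sandy loam mix received acetone-dissolved compounds through a moving flat-fan nozzle. Doses ranged from 15 to 1000 g ai/ha. Pre-emerge pots were seeded one day earlier, post-emerge pots 8–21 days earlier. Fourteen days on, each pot was graded 0–100 for damage.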

[3] = tested on: field corn (Zea mays L., var. Dekalb 535, CORN); assay: Post-emerge test, crop safety; conditions: post-emerge, 14 days after application, rating scale 0-100
Summary of the method: as §1

[4] = tested on: upland rice (Oryza sp., var. Tebonnet, RICE); assay: Pre-emerge test, crop safety; conditions: pre-emerge, 14 days after application, rating scale 0-100
Summary of the method: (§2)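 Rating: 0–100 visual injury, 14 DAA. Application: acetone, 187 l/ha, 15–1000 g ai/ha, flat-fan track sprayer with nozzle 40–45 cm above soil or canopy. Post-emerge runs used 0.25% v/v surfactant on 2–3 leaf plants.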

[5] = tested on: field corn (Zea mays L., var. Dekalb 535, CORN); assay: Pre-emerge test, crop safety; conditions: pre-emerge, 14 days after application, rating scale 0-100
Summary of the method: as §2

[6] = tested on: ivyleaf morningglory (Ipomoea hederacea, IPOHE); assay: Pre-emerge test, greenhouse herbicide activity screening; conditions: pre-emerge, 14 days after application, rating scale 0-100
Summary of the method: as §2

[7] = tested on: large crabgrass (Digitaria sanguinalis, DIGSA); assay: as above; conditions: pre-emerge, 14 days after application, rating scale 0-100
Summary of the method: as §2

[8] = tested on: green foxtail (Setaria viridis, SETVI); assay: as above; conditions: pre-emerge, 14 days after application, rating scale 0-100
Summary of the method: as §2

[9] = tested on: johnsongrass (Sorghum halepense, SORHA); assay: as above; conditions: pre-emerge, 14 days after application, rating scale 0-100
Summary of the method: as §2

[10] = tested on: sicklepod (Cassia obtusifolia, CASOB); assay: as above; conditions: pre-emerge, 14 days after application, rating scale 0-100
Summary of the method: as §2

[11] = tested on: barnyardgrass (Echinochloa crus-galli, ECHCG); assay: as above; conditions: pre-emerge, 14 days after application, rating scale 0-100
Summary of the method: as §2

[12] = tested on: lambsquarters (Chenopodium album, CHEAL); assay: as above; conditions: pre-emerge, 14 days after application, rating scale 0-100
Summary of the method: as §2

[13] = tested on: velvetleaf (Abutilon theophrasti, ABUTH); assay: as above; conditions: pre-emerge, 14 days after application, rating scale 0-100
Summary of the method: as §2

[14] = tested on: ivyleaf morningglory (Ipomoea hederacea, IPOHE); assay: Post-emerge test, greenhouse herbicide activity screening; conditions: post-emerge, 14 days after application, rating scale 0-100
Summary of the method: (§3)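 Compounds in acetone were track-sprayed at 15-1000 g ai/ha (187 l/ha) on sandy loam pots: pre-emerge one day after seeding, post-emerge at 2-3 leaf stage with 0.25% v/v non-ionic surfactant. Phytotoxicity was rated 14 days later on a 0 (no damage) to 100 (complete death) scale.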

[15] = tested on: large crabgrass (Digitaria sanguinalis, DIGSA); assay: as above; conditions: post-emerge, 14 days after application, rating scale 0-100
Summary of the method: as §3

[16] = tested on: green foxtail (Setaria viridis, SETVI); assay: as above; conditions: post-emerge, 14 days after application, rating scale 0-100
Summary of the method: as §3

[17] = tested on: johnsongrass (Sorghum halepense, SORHA); assay: as above; conditions: post-emerge, 14 days after application, rating scale 0-100
Summary of the method: as §3

[18] = tested on: redroot pigweed (Amaranthus retroflexus, AMARE); assay: as above; conditions: post-emerge, 14 days after application
Summary of the method: as §3

[19] = tested on: sicklepod (Cassia obtusifolia, CASOB); assay: as above; conditions: post-emerge, 14 days after application, rating scale 0-100
Summary of the method: as §3

[20] = tested on: barnyardgrass (Echinochloa crus-galli, ECHCG); assay: as above; conditions: post-emerge, 14 days after application, rating scale 0-100
Summary of the method: as §3

[21] = tested on: lambsquarters (Chenopodium album, CHEAL); assay: as above; conditions: post-emerge, 14 days after application, rating scale 0-100
Summary of the method: as §3

[22] = tested on: velvetleaf (Abutilon theophrasti, ABUTH); assay: as above; conditions: post-emerge, 14 days after application, rating scale 0-100
Summary of the method: as §3

`COc1c(Cl)cc(F)c(-n2c(=O)cc(C(F)(F)F)n(C)c2=O)c1NN=C(C(F)(F)F)C(F)(F)F` [15-21] was tested, and the “phytotoxicity rating AMARE” value ([1]; 63 g ai/ha) was 100, the “phytotoxicity rating AMARE” value ([1]; 250 g ai/ha) was 100 and the “Post-emerge Herbicidal Activity RICE (crop damage rating)” value ([2]; 63 g ai/ha) was 80. The “Post-emerge Herbicidal Activity RICE (crop damage rating)” value ([2]; 250 g ai/ha) was 90, the “Post-emerge Herbicidal Activity CORN (crop damage rating)” value ([3]; 63 g ai/ha) was 30 and the “Post-emerge Herbicidal Activity CORN (crop damage rating)” value ([3]; 250 g ai/ha) was 90. The “phytotoxicity rating RICE” value ([4]; 63 g ai/ha) was 99, the “phytotoxicity rating RICE” value ([4]; 250 g ai/ha) was 100 and the “phytotoxicity rating CORN” value ([5]; 63 g ai/ha) was 95. For the same compound, the “phytotoxicity rating CORN” value ([5]; 250 g ai/ha) was 100, the “phytotoxicity rating IPOHE” value ([6]; 63 g ai/ha) was 100 and the “phytotoxicity rating IPOHE” value ([6]; 250 g ai/ha) was 100. The “phytotoxicity rating DIGSA” value ([7]; 63 g ai/ha) was 100, the “phytotoxicity rating DIGSA” value ([7]; 250 g ai/ha) was 100 and the “phytotoxicity rating SETVI” value ([8]; 63 g ai/ha) was 100. The “phytotoxicity rating SETVI” value ([8]; 250 g ai/ha) was 100, the “phytotoxicity rating SORHA” value ([9]; 63 g ai/ha) was 100 and the “phytotoxicity rating SORHA” value ([9]; 250 g ai/ha) was 100. For the same compound, the “phytotoxicity rating CASOB” value ([10]; 63 g ai/ha) was 100, the “phytotoxicity rating CASOB” value ([10]; 250 g ai/ha) was 100 and the “phytotoxicity rating ECHCG” value ([11]; 63 g ai/ha) was 99. For the same compound, the “phytotoxicity rating ECHCG” value ([11]; 250 g ai/ha) was 100, the “phytotoxicity rating CHEAL” value ([12]; 63 g ai/ha) was 100 and the “phytotoxicity rating CHEAL” value ([12]; 250 g ai/ha) was 100. For the same compound, the “phytotoxicity rating ABUTH” value ([13]; 63 g ai/ha) was 100, the “phytotoxicity rating ABUTH” value ([13]; 250 g ai/ha) was 100 and the “Post-emerge Herbicidal Activity IPOHE (phytotoxicity rating)” value ([14]; 63 g ai/ha) was 100. The “Post-emerge Herbicidal Activity IPOHE (phytotoxicity rating)” value ([14]; 250 g ai/ha) was 100, the “Post-emerge Herbicidal Activity DIGSA (phytotoxicity rating)” value ([15]; 63 g ai/ha) was 30 and the “Post-emerge Herbicidal Activity DIGSA (phytotoxicity rating)” value ([15]; 250 g ai/ha) was 95. For the same compound, the “Post-emerge Herbicidal Activity SETVI (phytotoxicity rating)” value ([16]; 63 g ai/ha) was 50, the “Post-emerge Herbicidal Activity SETVI (phytotoxicity rating)” value ([16]; 250 g ai/ha) was 90 and the “Post-emerge Herbicidal Activity SORHA (phytotoxicity rating)” value ([17]; 63 g ai/ha) was 40. For the same compound, the “Post-emerge Herbicidal Activity SORHA (phytotoxicity rating)” value ([17]; 250 g ai/ha) was 95, the “Post-emerge Herbicidal Activity AMARE (phytotoxicity rating)” value ([18]; 63 g ai/ha, rating scale 0-100 (0 no damage, 100 complete death)) was 95 and the “Post-emerge Herbicidal Activity AMARE (phytotoxicity rating)” value ([18]; 250 g ai/ha, rating scale 0-100) was 100. The “Post-emerge Herbicidal Activity CASOB (phytotoxicity rating)” value ([19]; 63 g ai/ha) was 100, the “Post-emerge Herbicidal Activity CASOB (phytotoxicity rating)” value ([19]; 250 g ai/ha) was 100 and the “Post-emerge Herbicidal Activity ECHCG (phytotoxicity rating)” value ([20]; 63 g ai/ha) was 60. The “Post-emerge Herbicidal Activity ECHCG (phytotoxicity rating)” value ([20]; 250 g ai/ha) was 100, the “Post-emerge Herbicidal Activity CHEAL (phytotoxicity rating)” value ([21]; 63 g ai/ha) was 100 and the “Post-emerge Herbicidal Activity CHEAL (phytotoxicity rating)” value ([21]; 250 g ai/ha) was 100. The “Post-emerge Herbicidal Activity ABUTH (phytotoxicity rating)” value ([22]; 63 g ai/ha) was 100 and the “Post-emerge Herbicidal Activity ABUTH (phytotoxicity rating)” value ([22]; 250 g ai/ha) was 100.
